Source: the NIST ThermoML archive (doi:10.1016/j.jct.2018.12.016)
Numbers after ± are expanded uncertainties.

Conditions: 298.15 K, Liquid; for mass density: 101.33 kPa, Pycnometric method; for vapor or sublimation pressure: Manometric method

| SMILES | mass density | vapor or sublimation pressure |
| --- | --- | --- |
| CCCCOC(=O)c1ccccc1C(=O)OCCCC [dibutyl phthalate] | 1042 ± 2 kg/m3 | – |
| CC#N [acetonitrile] | 776 ± 2 kg/m3 | 11.81 ± 0.16 kPa |
| [Hg] [mercury] | 13530 ± 30 kg/m3 | – |

Next, values leading:

| mass density | vapor or sublimation pressure | SMILES |
| --- | --- | --- |
| 1096 ± 3 kg/m3 | 0.08 ± 0.078 kPa | C[S+](C)[O-] [dimethyl sulfoxide] |
| 1063 ± 2 kg/m3 | 7.256 ± 0.12 kPa | COC(=O)OC [dimethyl carbonate] |
